Measurements reported in patent US20260183393A1, “IMMUNOSUPPRESSANT-RESISTANT MODIFIED ALLOGENEIC MODIFIED IMMUNE CELLS AND METHODS FOR USE THEREOF” (Beam Therapeutics Inc., priority 2023, published 2026).

B1: TSBT×6143: guide polynucleotide targeting PPIA (nucleic acid)
guide: GCCCGACCTCAAAGGAGACGGTTTTAGAGCTAGAAATAGCAAGTTAAAATAAGGCTAGTCCGTTATCAACTTGAAAAAGTGGCACCGAGTCGGTGCTTTT
modifications: chemistry not given here
notes: guide polynucleotide targeting PPIA
B2: TSBT×6146: guide polynucleotide targeting PPIA (nucleic acid)
guide: CGTACCTGACACATAAACCCGTTTTAGAGCTAGAAATAGCAAGTTAAAATAAGGCTAGTCCGTTATCAACTTGAAAAAGTGGCACCGAGTCGGTGCTTTT
modifications: chemistry not given here
notes: as for B1

Assays:
endogenous NK cells = assay: IL-15 treatment of HIS mice, elimination of HLA-deficient T cells; assay type: in vivo, BLT mice; settings: 2.5 mg every 2-3 days, 6 total injections
Description: FIGS. 20A to 20E provide plots, a schematic diagram, and a flow cytometry scatter plot showing human immune system (HIS) mice under-reconstituted human NK cells and necessitated IL-15 treatment to eliminate HLA-deficient T cells. FIG. 20A provides a plot showing frequency of human CD56^+ NK cells of CD45^+ cells in PBMCs from human donors (n=10), BLT-NSG mice (Cohort A, n=18; Cohort B, n=15; Cohort C, n=18) and huCD34^+ NCG mice (Cohort D, n=17; Cohort E, n=12; Cohort F, n=24; Cohort G, n=12). FIGS. 20B to 20E relate to an experiment where HIS mice were treated every 2-3 days with recombinant human IL-15 (2.5 mg) or PBS for 6 total injections. Mice were then coinfused 1:1 ratio with allogeneic CD4-based CAR-T cells that were base-edited for TCRKO (HLA+) or TCRKOb2MKOCIITAKO (HLA−). […] Statistical significance was calculated by Wilcoxon matched-pairs signed rank test (FIG. 20E).
For the study described in FIGS. 20A to 20E, BLT mice received intraperitoneal injections every 2-3 days of 2.5 mg recombinant human IL-15 (BioLegend; n=6) or sterile PBS (n=3) for 6 total injections. […] Persistence of 4CAR-T cells was monitored at 1-, 4- and 7-days post-T cell infusion via blood draw from the retro-orbital sinus. […] Persistence of 4CAR-T cells was monitored at 1-day post-T cell infusion and weekly thereafter via blood draw from submandibular vein.

19CAR-T cells [1] = assay: CAR-T cell proliferation assay; assay type: cell-based, human; settings: corticosteroid treatment; JeKo-1 stimulation
Description: Primary human T cells were activated using an anti-CD3/CD28/CD2 reagent. Two-days after being contacted with the reagent, the T cells were edited using a base editor system containing the guide polynucleotide TSBT×1538 and the base editor ABE8.20m using electroporation, as described above. Following electroporation, both the T cells were transduced with a lentiviral vector encoding an anti-CD19 CAR (19CAR) and allowed to expand in culture for approximately 7 days before being cryopreserved for later analysis. Unedited anti-CD19 CAR-T cells were prepared as a negative control. The 19CAR-T cells were then thawed from cryopreservation and rested overnight before being stimulated using dynabeads coated with recombinant human CD19 protein-coated at a bead-to-cell ratio of 1:1. The T cells were cultured in the presence of 100 nM of the immunosuppressant rapamycin or dimethylsulfoxide (DMSO) as a control for 6 days. The total number of T cells were enumerated using a NucleoCounter NC-200™ automated cell counter.
Primary human T cells were activated using an anti-CD3/CD28/CD2 reagent. Two days after being contacted with the reagent, the T cells were edited using a base editor system containing the guide polynucleotide TSBT×1538 and the base editor ABE8.20m using the electroporation protocol described above. Both edited and unedited T cells were transduced with a lentiviral vector encoding an anti-CD19 CAR (19CAR) and allowed to expand in culture for approximately 7 days before being cryopreserved for later analysis. Unedited 19CAR-T cells were used as a control. For analysis, the 19CAR-T cells were thawed and rested for 72 hours before labeling using a CellTrace™ Far Red (CTFR) dye. After CTFR labeling, the 19CAR-T cells were stimulated using an Immunocult™ Human CD3/CD28/CD2 universal T cell activator in the presence of 100 nM of the immunosuppressant agent rapamycin or in the presence of DMSO (control) and allowed to incubate for an additional 3 days. Following the three-day incubation, the T cells were analyzed using flow cytometry to measure dilution of CTFR dye as an indicator of cell proliferation.
The following day, T cells were washed, counted and 1×10^4 cells were seeded in triplicate into a 96-well flat bottom plate alone or with 1×10^4 JeKo-1.GFP^+ tumor cells. […] On day 7, samples were analyzed by flow cytometry and 19CAR-T cells were enumerated using CountBright Counting Beads (Thermo Fisher Scientific) following the manufacturer's protocol.

19CAR-T cells [2] = assay: CAR-T cell cytokine production assay; assay type: cell-based, human; settings: corticosteroid treatment; JeKo-1 stimulation; IFNg and TNFa
Protocol: (§1) 10. Monensin and Brefeldin A were added to the cell cultures to inhibit protein secretion for the duration of the stimulation. After the 6 hours, the cells were stained with reagents against 19CAR, CD4, CD8, IFNg, and TNFa, and the cells were also stained using a viability stain. Fluorescence activated cell sorting (FACS) was then used to measure intracellular levels of IFNg (y-axis) and TNFa (x-axis) in CD4^+ 19CAR-T cells. In FIG. 10, the numbers in each quadrant of each contour plot represent the percent of total cells counted that fell within the quadrant.
as §1, with “CD8^+” for “CD4^+”
The following day, T cells were washed, counted and 1×10^5 cells were seeded in duplicate into a 96-well flat bottom plate alone or with 2×10^5 JeKo-1.GFP^+ tumor cells. […] Cells were incubated for 6 hours total before analysis by flow cytometry.

donor T cells = settings: 10 nM dose of AP1903; cells expressing iCasp9; cited from earlier work
PPIA protein = assay: Flow cytometry of PPIA protein in edited T cells; assay type: cell-based, human; settings: T cells edited with ABE8.20m and the guide, five days
Description: FIG. 7 provides a set of overlaid flow cytometry histograms confirming knock-out of PPIA protein expression in primary human T cells edited using base editor systems containing
ABE8.20m and the guide polynucleotide TSBT×6143 or TSBT×6146 (see Table 1 for nucleotide sequences). Five days following being contacted with the base editor systems, the T cells were stained using LIVE/DEAD™ Fixable Near-Infra Red (NIR) stain (Thermo). The cells were then fixed and permeabilized followed by immunostaining using a primary antibody targeting PPIA (polyclonal Cyclophilin A Antibody from ProteinTech; 10720-1-AP). The cells were then contacted with a secondary antibody (polyclonal Goat anti-Rabbit IgG (H+L) Cross-Adsorbed Secondary Antibody labeled using Alexa Fluor™ 488 and available from Invitrogen; A-11008) and analyzed using flow cytometry. Unedited cells and isotype control antibody stained cells were used as controls representing high and low levels of PPIA protein, respectively. The x-axis of FIG. 7 indicates the level of PPIA protein measured. In FIG. 7, the y-axis represents cell counts normalized to the mode cell count measured for PPIA expression levels in a sample (i.e., the most frequently counted expression level was set to have a total cell count value (y-axis value) equal to 100).

Molecule	antigen-driven proliferation of FKBP1A^KO 19CAR-T cells (19CAR-T cells [1])	cytokine production of FKBP1A^KO 19CAR-T cells (19CAR-T cells [2])	PPIA expression (PPIA protein)	further results
recombinant human IL-15: recombinant human IL-15 (BioLegend)	–	–	–	priming of endogenous NK cells against b2M^KO T cells (endogenous NK cells): prime endogenous NK cells against b2M^KO T cells in vivo
C[C@]12C=CC(=O)C=C1CC[C@@H]1[C@@H]2C(=O)C[C@@]2(C)[C@H]1CC[C@]2(O)C(=O)CO [prednisone, Prednisone]	suppressed	suppressed	–	–
CC[C@H](C(=O)N1CCCC[C@H]1C(=O)O[C@H](CCc1ccc(OC)c(OC)c1)c1cccc(OCC(=O)NCCNC(=O)COc2cccc([C@@H](CCc3ccc(OC)c(OC)c3)OC(=O)[C@@H]3CCCCN3C(=O)[C@@H](CC)c3cc(OC)c(OC)c(OC)c3)c2)c1)c1cc(OC)c(OC)c(OC)c1 [AP1903]	–	–	–	apoptosis of donor T cells (donor T cells): approximately 99%
C[C@@H]1C[C@H]2[C@@H]3CCC4=CC(=O)C=C[C@]4(C)[C@@]3(F)[C@@H](O)C[C@]2(C)[C@@]1(O)C(=O)CO [dexamethasone, Dexamethasone]	suppressed	suppressed	–	–
B1	–	–	Knock-out of PPIA expression	–
B2	–	–	Knock-out of PPIA expression	–
